# Legend:
# P2X3 receptors = target: T1, P2X3 receptors (Mus musculus, UniProt Q3UR32); assay type: cell-based
# T1 construct: endogenous in cells; host or cells: primary DRG cultures of TRPV1-Cre::GCaMP6f mice
# T1 sequence (Q3UR32 1-397): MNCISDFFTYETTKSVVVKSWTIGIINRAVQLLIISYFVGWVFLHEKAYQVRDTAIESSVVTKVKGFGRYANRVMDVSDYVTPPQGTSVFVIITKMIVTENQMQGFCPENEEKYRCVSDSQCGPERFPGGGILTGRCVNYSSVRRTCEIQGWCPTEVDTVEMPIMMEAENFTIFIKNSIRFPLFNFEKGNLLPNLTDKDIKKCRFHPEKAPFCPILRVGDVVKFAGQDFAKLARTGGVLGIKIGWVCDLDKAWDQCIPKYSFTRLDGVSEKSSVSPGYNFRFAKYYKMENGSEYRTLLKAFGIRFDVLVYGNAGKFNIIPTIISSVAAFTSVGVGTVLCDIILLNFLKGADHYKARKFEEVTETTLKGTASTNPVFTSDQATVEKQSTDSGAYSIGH
# Procedure: Cre-dependent GCaMP6f mice (Ai95D; Jackson Labs) were crossed with TRPV1-Cre mice to express GCaMP6f in all nociceptors. In TRPV1-Cre::GCaMP6f mice, GCaMP6f expression is not limited to cells that are TRPV1-positive at maturity, because TRPV1 is expressed broadly amongst nociceptors early in development.
# DRG cultures were grown on 35 mm dishes. On the 3rd day, the cultures were treated with complexes of predesigned siRNA molecules directed against mouse P2X3 or a non-targeting control siRNA (Qiagen FlexiTube siRNA final concentration 100 nM) and 2 ul of HiPerFect transfection reagent. The cells were incubated with the transfection complexes for 48 to 72 hours with addition of fresh media 24 h post-transfection.
# P2X3 receptor = target: T2, P2X3 receptor (Homo sapiens, UniProt P56373); assay: Calcium imaging of cultured human nociceptors exposed to lionfish venom; assay type: cell-based; conditions: AF-353 300 nM, 8-minute incubation; p<0.001 Fisher's exact test
# T2 construct: dorsal root ganglia were isolated from human organ donors and placed in culture; endogenous in cells; host or cells: primary sensory neurons cultured from human donor dorsal root ganglia
# Procedure: To verify the efficacy of this compound in humans, dorsal root ganglia were isolated from human organ donors and placed in culture between 3 and 5 hours after cross-clamping the heart. Sensory neurons were cultured for at least 5 days before performing any experiments to allow for satellite cell detachment. For calcium imaging experiments, human nociceptors were exposed to the lionfish venom in the presence of the P2X3 receptor antagonist AF-353 (300 nM), which was introduced in the bath solution (in mM: NaCl 150, KCl 3, Glucose 10, CaCl2) 2, and MgCl2 1; in distilled water, buffered to a pH of 7.3). Cells were incubated with AF-353 for 8-minutes either after an initial application of lionfish venom or before any applications of the venom. Venom was applied in 2-second puffs with a picospritzer as in FIG. 2.
# P2X3 = target: T3, P2X3 (Mus musculus, UniProt Q3UR32); assay: Spontaneous pain assay, intraplantar AF-353 before or after lionfish venom; assay type: in vivo, mice; conditions: AF-353 3 mM in 20 μL intraplantar 30 minutes prior or within 2 minutes after 66 μg venom; 1 hour
# T3 construct: from tissue; host or cells: living mice, hind paw (whole animal, behavioural read-out)
# Procedure: AF-353 was prepared in a stock solution of 300 mM in DMSO and diluted to 3 mM in physiological saline for at the time of experimentation. Mice were injected with AF-353 intraplantarly either 30 minutes prior to injection of lionfish venom, to determine whether the compound could be used as a prophylactic treatment against lionfish envenomations, or immediately (within 2 minutes) after injection of lionfish venom in the paw, in order to determine whether the compound could be used as a treatment after lionfish envenomations. During the experiment, mice were placed on a glass surface with a mirror placed underneath at a 45-degree angle and kept in round Plexi-glass restrainers. A video camera filmed the animals' spontaneous pain behaviour for an hour. The amount of time the mice spent licking their paws was quantified by two independent and blinded experimenters.
# Mice were injected with the vehicle (Veh) for AF-353 (DMSO) 30 minutes prior to injection of the Veh for the venom (physiological saline) (empty squares), venom (Vnm) followed by Veh (DMSO; black squares), AF-353 (AF, 3 mM in a total volume of 20 μL) followed by venom (light grey squares), or venom followed by AF-353 (dark grey squares). n=5 mice per group. The dose of venom injected was 66 μg of crude venom in a total volume of 20 μL (veh. saline). […] Stats: ***=P<0.001; **=P=0.009. Unpaired t test.
# TRPV1 [1] = target: T4, TRPV1 (Mus musculus, UniProt Q704Y3); assay type: cell-based, mice
# Procedure: To test the TRPV1 receptor antagonist, changes in intracellular calcium concentrations in single cells were recorded as changes in GCaMP6f fluorescence. Exposure to the antagonist (10 μM) and image analysis were performed in a manner similar to the bradykinin (BK) receptor antagonist described above. The TRPV1 receptor agonist capsaicin (1 μM) and lionfish venom were applied during 1 second over the imaging region.
# TRPV1 [2] = target: T4, TRPV1; assay type: in vivo, mice; conditions: 30 mg/kg intraperitoneal; 44 μg venom intraplantar; P=0.841 vs vehicle
# Procedure: Protein concentration in the venom extract was determined to be 2.2 μg/μL using the Bio-Rad DC assay. Mice (12-weeks old C57BL/6 males and females, The Jackson Laboratory) were placed in an observation chamber on a glass platform, under which a mirror was placed at a 45° angle so as to show the hind paw of the mouse to the recording videocamera. Once the mice were acclimatized to the chamber, they were taken out and injected in the ventral aspect of their left hind paw with a 20 μl solution of the crude or diluted venom (44 or 4.4 μg/20 μl). The venom was extracted in sterile physiological saline (0.9% NaCl) and the same vehicle was used for dilutions.
# T4 sequence (Q704Y3 whole entry): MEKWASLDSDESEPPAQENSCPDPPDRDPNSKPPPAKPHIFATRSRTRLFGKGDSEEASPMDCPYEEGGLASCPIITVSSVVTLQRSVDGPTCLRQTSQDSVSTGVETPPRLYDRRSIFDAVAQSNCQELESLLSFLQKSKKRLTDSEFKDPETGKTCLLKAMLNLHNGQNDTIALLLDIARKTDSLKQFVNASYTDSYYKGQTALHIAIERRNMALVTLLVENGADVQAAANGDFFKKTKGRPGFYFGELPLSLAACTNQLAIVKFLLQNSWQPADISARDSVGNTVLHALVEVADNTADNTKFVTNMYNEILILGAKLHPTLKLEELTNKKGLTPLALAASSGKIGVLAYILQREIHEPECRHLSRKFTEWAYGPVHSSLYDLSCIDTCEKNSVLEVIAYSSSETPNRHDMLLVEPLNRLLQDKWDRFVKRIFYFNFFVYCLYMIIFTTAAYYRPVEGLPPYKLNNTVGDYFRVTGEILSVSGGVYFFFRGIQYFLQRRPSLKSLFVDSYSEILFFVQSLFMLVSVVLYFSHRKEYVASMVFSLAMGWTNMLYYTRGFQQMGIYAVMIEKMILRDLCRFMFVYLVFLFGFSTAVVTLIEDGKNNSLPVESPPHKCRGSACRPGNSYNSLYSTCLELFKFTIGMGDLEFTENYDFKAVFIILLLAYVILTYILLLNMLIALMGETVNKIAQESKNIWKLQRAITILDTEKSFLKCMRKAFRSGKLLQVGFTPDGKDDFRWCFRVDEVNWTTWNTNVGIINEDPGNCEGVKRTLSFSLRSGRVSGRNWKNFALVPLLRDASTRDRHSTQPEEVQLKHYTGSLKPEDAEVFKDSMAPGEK
# T2 sequence (P56373 whole entry): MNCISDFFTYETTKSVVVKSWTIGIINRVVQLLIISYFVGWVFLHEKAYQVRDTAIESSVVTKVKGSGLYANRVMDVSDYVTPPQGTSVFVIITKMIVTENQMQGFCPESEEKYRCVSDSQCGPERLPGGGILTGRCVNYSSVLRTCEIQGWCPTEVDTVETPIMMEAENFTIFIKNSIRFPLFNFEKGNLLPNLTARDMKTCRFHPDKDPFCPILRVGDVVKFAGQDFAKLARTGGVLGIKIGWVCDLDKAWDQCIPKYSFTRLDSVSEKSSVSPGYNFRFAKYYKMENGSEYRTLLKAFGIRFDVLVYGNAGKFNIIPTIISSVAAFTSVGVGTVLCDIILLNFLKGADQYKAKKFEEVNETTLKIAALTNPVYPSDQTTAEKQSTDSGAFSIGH
smiles,measurement,setting,value
COc1cc(C(C)C)c(Oc2cnc(N)nc2N)cc1I [AF-353],venom-elicited intracellular calcium responses in cultured mouse nociceptors,P2X3 receptors,reversibly blocks
same,"α,β,Me-ATP-elicited calcium responses in cultured mouse nociceptors","P2X3 receptors; selective P2X3 receptor agonist α,β,Me-ATP",reversibly blocks
same,venom-induced calcium responses in human nociceptors,P2X3 receptor,do not display calcium responses
same,pain caused by lionfish venom in vivo (time licking injected paw),P2X3,effective in reducing or eliminating pain
CC(C)(C)c1ccc(/C=C/C(=O)Nc2ccc3c(c2)OCCO3)cc1 [AMG-9810],Proportion of cultured DRG neurons responding to capsaicin in the presence of AMG-9810,TRPV1 [1],0/65
same,effect on capsaicin-elicited rise in intracellular calcium (sample traces),TRPV1 [1],blocked response
same,proportion of cells (DRG neurons) responding to the venom in the presence of AMG-9810,"TRPV1 [1]; AMG-9810 10 μM, Fisher exact test P=0.322",30/32
same,venom-elicited spontaneous pain behavior over 1 hour after AMG-9810 pretreatment,TRPV1 [2],independent
COc1cc(CNC(=O)CCCC/C=C/C(C)C)ccc1O [capsaicin],Proportion of cultured DRG neurons responding to capsaicin alone,TRPV1 [1],45/65

# From patent US11278504B1, “Treatment of a lionfish sting and formulations for use thereof” (priority 2019, dated 2022)
